Laboratory results as given in PubChem BioAssay AID220 (DTP/NCI, 2004).
Where “and” joins values, the source holds several entries; their conditions need not be identical. Equal values may be shown once. Results filed as inconclusive are left out.

Tested on: CD8F1 mice, subcutaneous mammary adenocarcinoma, T/C%
Assay: NCI In Vivo Anticancer Drug Screen. Data for tumor model Mammary Adenocarcinoma CD8F1 (subcutaneous) in CD8F1
Conditions: higher = larger tumour
Method in brief: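 Mice carrying transplanted tumors received test compound, and survival or tumor size was recorded. Each value is the treated-group measurement divided by the corresponding measurement in vehicle-dosed controls.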

[1] = endpoint: median tumor weight (est.), dose: 6.25 mg/kg/injection, schedule: Q07DX005 (ip), vehicle: Klucel (hydroxypropylcellulose) (HPC)
[2] = endpoint: median tumor weight (est.), dose: 12.5 mg/kg/injection, schedule: Q07DX005 (ip), vehicle: Klucel (hydroxypropylcellulose) (HPC)
[3] = endpoint: median tumor weight (est.), dose: 25.0 mg/kg/injection, schedule: Q07DX005 (ip), vehicle: Klucel (hydroxypropylcellulose) (HPC)
[4] = endpoint: median tumor weight (est.), dose: 50.0 mg/kg/injection, schedule: Q07DX005 (ip), vehicle: Klucel (hydroxypropylcellulose) (HPC)
[5] = endpoint: median tumor weight (est.), dose: 100.0 mg/kg/injection, schedule: Q07DX005 (ip), vehicle: Klucel (hydroxypropylcellulose) (HPC)

CCC1=C[C@H]2CN(CCc3c([nH]c4ccccc34)[C@@](C(=O)OC)(c3cc4c(cc3OC)N(C)[C@H]3[C@@](O)(C(=O)NC)[C@H](OC(C)=O)[C@]5(CC)C=CCN6CC[C@]43[C@@H]65)C2)C1
T/C (endpoint: median tumor weight (est.), dose: 0.03 mg/kg/injection, schedule: Q07DX005 (ip), vehicle: water): 93 % of control | T/C (endpoint: median tumor weight (est.), dose: 0.06 mg/kg/injection, schedule: Q07DX005 (ip), vehicle: water): 98 % of control | T/C (endpoint: median tumor weight (est.), dose: 0.12 mg/kg/injection, schedule: Q07DX005 (ip), vehicle: water): 91 % of control | T/C (endpoint: median tumor weight (est.), dose: 0.5 mg/kg/injection, schedule: Q07DX005 (ip), vehicle: saline): 86 % of control | T/C (endpoint: median tumor weight (est.), dose: 0.5 mg/kg/injection, schedule: Q07DX005 (ip), vehicle: water): 73 % of control | T/C (endpoint: median tumor weight (est.), dose: 1.0 mg/kg/injection, schedule: Q07DX005 (ip), vehicle: saline): 46 % of control | T/C (endpoint: median tumor weight (est.), dose: 1.0 mg/kg/injection, schedule: Q07DX005 (ip), vehicle: water): 57 % of control | T/C (endpoint: median tumor weight (est.), dose: 2.0 mg/kg/injection, schedule: Q07DX005 (ip), vehicle: water): 3 % of control

CO[C@H](/C(C)=C/C=C/C(C)=C/c1coc(C)n1)[C@H](C)[C@H]1C[C@@H](O)[C@@]2(C)O[C@H]2/C=C/[C@@H](C)[C@@H]2C[C@@H](CC(=O)O2)C[C@H]2O[C@@H]2C(=O)O1
T/C (endpoint: median tumor weight change, dose: 0.06 mg/kg/injection, schedule: Q01DX001 (ip), vehicle: Klucel (hydroxypropylcellulose) (HPC)): 175 % of control | T/C (endpoint: median tumor weight change, dose: 0.25 mg/kg/injection, schedule: Q01DX001 (ip), vehicle: Klucel (hydroxypropylcellulose) (HPC)): 83 % of control | T/C (endpoint: median tumor weight change, dose: 0.5 mg/kg/injection, schedule: Q01DX001 (ip), vehicle: Klucel (hydroxypropylcellulose) (HPC)): 110 % of control | T/C (endpoint: median tumor weight change, dose: 1.0 mg/kg/injection, schedule: Q01DX001 (ip), vehicle: Klucel (hydroxypropylcellulose) (HPC)): 101 % of control

COc1cc(NS(C)(=O)=O)ccc1Nc1c2ccccc2nc2ccccc12
T/C (endpoint: mean tumor weight (est.), dose: 4.0 mg/kg/injection, schedule: Q07DX004 (ip), vehicle: saline): 158 % of control | T/C (endpoint: mean tumor weight (est.), dose: 8.0 mg/kg/injection, schedule: Q07DX004 (ip), vehicle: saline): 120 % of control | T/C (endpoint: mean tumor weight (est.), dose: 16.0 mg/kg/injection, schedule: Q07DX004 (ip), vehicle: saline): 109 % of control | T/C (endpoint: mean tumor weight (est.), dose: 32.0 mg/kg/injection, schedule: Q07DX004 (ip), vehicle: saline): 79 % of control | T/C (endpoint: mean tumor weight, dose: 2.0 mg/kg/injection, schedule: Q05DX005 (ip), vehicle: saline): 66 % of control | T/C (endpoint: mean tumor weight, dose: 4.0 mg/kg/injection, schedule: Q05DX005 (ip), vehicle: saline): 82 % of control | T/C (endpoint: mean tumor weight, dose: 4.0 mg/kg/injection, schedule: Q07DX004 (ip), vehicle: saline): 51 % of control | T/C (endpoint: mean tumor weight, dose: 8.0 mg/kg/injection, schedule: Q05DX005 (ip), vehicle: saline): 62 % of control | T/C (endpoint: mean tumor weight, dose: 8.0 mg/kg/injection, schedule: Q07DX004 (ip), vehicle: saline): 28 % of control | T/C (endpoint: mean tumor weight, dose: 16.0 mg/kg/injection, schedule: Q05DX005 (ip), vehicle: saline): 39 % of control | T/C (endpoint: mean tumor weight, dose: 16.0 mg/kg/injection, schedule: Q07DX004 (ip), vehicle: saline): 23 % of control | T/C (endpoint: mean tumor weight, dose: 32.0 mg/kg/injection, schedule: Q07DX004 (ip), vehicle: saline): 18 % of control | T/C (endpoint: median tumor weight (est.), dose: 1.0 mg/kg/injection, schedule: Q01DX005 (ip), vehicle: Klucel (hydroxypropylcellulose) (HPC)): 73 % of control | T/C (endpoint: median tumor weight (est.), dose: 2.0 mg/kg/injection, schedule: Q01DX005 (ip), vehicle: Klucel (hydroxypropylcellulose) (HPC)): 94 % of control | T/C (endpoint: median tumor weight (est.), dose: 2.0 mg/kg/injection, schedule: Q07DX005 (ip), vehicle: Klucel (hydroxypropylcellulose) (HPC)): 195 % of control | T/C (endpoint: median tumor weight (est.), dose: 4.0 mg/kg/injection, schedule: Q01DX005 (ip), vehicle: Klucel (hydroxypropylcellulose) (HPC)): 80 % of control | T/C (endpoint: median tumor weight (est.), dose: 4.0 mg/kg/injection, schedule: Q04DX005 (ip), vehicle: Klucel (hydroxypropylcellulose) (HPC)): 119 % of control | T/C (endpoint: median tumor weight (est.), dose: 4.0 mg/kg/injection, schedule: Q07DX005 (ip), vehicle: Klucel (hydroxypropylcellulose) (HPC)): 42 % of control and 65 % of control | T/C (endpoint: median tumor weight (est.), dose: 8.0 mg/kg/injection, schedule: Q01DX005 (ip), vehicle: Klucel (hydroxypropylcellulose) (HPC)): 59 % of control | T/C (endpoint: median tumor weight (est.), dose: 8.0 mg/kg/injection, schedule: Q04DX005 (ip), vehicle: Klucel (hydroxypropylcellulose) (HPC)): 35 % of control | T/C (endpoint: median tumor weight (est.), dose: 16.0 mg/kg/injection, schedule: Q01DX001 (ip), vehicle: Klucel (hydroxypropylcellulose) (HPC)): 93 % of control | T/C (endpoint: median tumor weight (est.), dose: 16.0 mg/kg/injection, schedule: Q01DX005 (ip), vehicle: Klucel (hydroxypropylcellulose) (HPC)): 38 % of control | T/C (endpoint: median tumor weight (est.), dose: 16.0 mg/kg/injection, schedule: Q04DX005 (ip), vehicle: Klucel (hydroxypropylcellulose) (HPC)): 17 % of control | T/C (endpoint: median tumor weight (est.), dose: 32.0 mg/kg/injection, schedule: Q01DX001 (ip), vehicle: Klucel (hydroxypropylcellulose) (HPC)): 35 % of control | T/C (endpoint: median tumor weight (est.), dose: 32.0 mg/kg/injection, schedule: Q07DX005 (ip), vehicle: Klucel (hydroxypropylcellulose) (HPC)): 3 % of control and 10 % of control | T/C (endpoint: median tumor weight (est.), dose: 64.0 mg/kg/injection, schedule: Q01DX001 (ip), vehicle: Klucel (hydroxypropylcellulose) (HPC)): 39 % of control

Cc1nn(CCO)c(C)c1N=[N+]([O-])c1c(C)nn(CCO)c1C
T/C [1]: 57 % of control | T/C [2]: 63 % of control | T/C [3]: 91 % of control | T/C [4]: 104 % of control | T/C [5]: 43 % of control

CC1=C(C)C(=O)O[C@@H]([C@](C)(O)[C@]2(O)CC[C@@]3(O)[C@@H]4C[C@H]5O[C@]56[C@@H](O)C=CC(=O)[C@]6(C)[C@H]4CC[C@]23C)C1
T/C (endpoint: median tumor weight change, dose: 18.75 mg/kg/injection, schedule: Q01DX001 (ip), vehicle: saline): 104 % of control | T/C (endpoint: median tumor weight change, dose: 37.5 mg/kg/injection, schedule: Q01DX001 (ip), vehicle: saline): 63 % of control | T/C (endpoint: median tumor weight change, dose: 75.0 mg/kg/injection, schedule: Q01DX001 (ip), vehicle: saline): 61 % of control

O=C(O)c1c2c(nc3ccccc13)Cc1ccccc1-2
T/C [2]: 96 % of control | T/C (endpoint: median tumor weight (est.), dose: 12.5 mg/kg/injection, schedule: Q07DX005 (ip), vehicle: water): 6 % of control | T/C [3]: 119 % of control | T/C (endpoint: median tumor weight (est.), dose: 25.0 mg/kg/injection, schedule: Q07DX005 (ip), vehicle: water): 89 % of control | T/C [4]: 98 % of control | T/C (endpoint: median tumor weight (est.), dose: 50.0 mg/kg/injection, schedule: Q07DX005 (ip), vehicle: water): 59 % of control | T/C [5]: 97 % of control | T/C (endpoint: median tumor weight (est.), dose: 100.0 mg/kg/injection, schedule: Q07DX005 (ip), vehicle: water): 87 % of control | T/C (endpoint: median tumor weight (est.), dose: 200.0 mg/kg/injection, schedule: Q07DX005 (ip), vehicle: Klucel (hydroxypropylcellulose) (HPC)): 57 % of control | T/C (endpoint: median tumor weight (est.), dose: 200.0 mg/kg/injection, schedule: Q07DX005 (ip), vehicle: water): 60 % of control

CC(=O)OCC1OC([S-])C(OC(C)=O)C(OC(C)=O)C1OC(C)=O.CC[PH+](CC)CC.CC[PH+](CC)CC.[Au].[Au] (configuration not stated)
T/C (endpoint: median tumor weight change, dose: 6.25 mg/kg/injection, schedule: Q01DX001 (ip), vehicle: Klucel (hydroxypropylcellulose) (HPC)): 63 % of control | T/C (endpoint: median tumor weight change, dose: 12.5 mg/kg/injection, schedule: Q01DX001 (ip), vehicle: Klucel (hydroxypropylcellulose) (HPC)): 109 % of control

CC(=O)C1(O)Cc2c(O)c3c(c(O)c2C(OC2CC(N)C(O)C(C)O2)C1)C(=O)c1ccccc1C3=O (configuration not stated)
T/C (endpoint: median tumor weight (est.), dose: 0.1 mg/kg/injection, schedule: Q07DX005 (ip), vehicle: saline): 81 % of control | T/C (endpoint: median tumor weight (est.), dose: 0.2 mg/kg/injection, schedule: Q07DX005 (ip), vehicle: saline): 55 % of control | T/C (endpoint: median tumor weight (est.), dose: 0.4 mg/kg/injection, schedule: Q07DX005 (ip), vehicle: saline): 48 % of control

C(CSC1=NCCN1)CSC1=NCCN1
T/C (endpoint: median tumor weight (est.), dose: 12.5 mg/kg/injection, schedule: Q07DX005 (ip), vehicle: saline): 98 % of control | T/C (endpoint: median tumor weight (est.), dose: 25.0 mg/kg/injection, schedule: Q07DX005 (ip), vehicle: saline): 103 % of control | T/C (endpoint: median tumor weight (est.), dose: 50.0 mg/kg/injection, schedule: Q07DX005 (ip), vehicle: saline): 76 % of control | T/C (endpoint: median tumor weight (est.), dose: 100.0 mg/kg/injection, schedule: Q07DX005 (ip), vehicle: saline): 102 % of control | T/C (endpoint: median tumor weight (est.), dose: 200.0 mg/kg/injection, schedule: Q07DX005 (ip), vehicle: saline): 69 % of control

C[C@]12CC[C@@H]3c4ccc(O)cc4CC[C@H]3[C@@H]1CC[C@@H]2O
T/C [1]: 97 % of control | T/C [3]: 27 % of control

Cc1ccc2c(c1)N=C(Nc1ccccc1)N=S2(C)=O (configuration not stated)
T/C (endpoint: median tumor weight change, dose: 7.81 mg/kg/injection, schedule: Q01DX001 (ip), vehicle: saline with Tween-80): 115 % of control | T/C (endpoint: median tumor weight change, dose: 15.62 mg/kg/injection, schedule: Q01DX001 (ip), vehicle: saline with Tween-80): 121 % of control | T/C (endpoint: median tumor weight change, dose: 31.25 mg/kg/injection, schedule: Q01DX001 (ip), vehicle: saline with Tween-80): 67 % of control | T/C (endpoint: median tumor weight change, dose: 125.0 mg/kg/injection, schedule: Q01DX001 (ip), vehicle: saline with Tween-80): 93 % of control
